According to US10285994B2, “Method of preventing or treating osteoporosis by neddylation inhibitor” (Chang Gung University, priority 2017, dated 2019):

Key:
[1] = test system: UBA3; test: Western blot of UBA3 expression in RAW264.7 cells; type: cell-based, mouse; conditions: siRNA-transfected RAW264.7, FIG. 5B
Method: (§1) FIGS. 5A-5D are the data respectively depicting the effect of sRANKL on the neddylation pathway and the knockdown effect of UBA3 siRNA on macrophages during osteoclast differentiation according to example 4 of the present disclosure. FIG. 5A: RAW264.7 mouse macrophages were seeded on wells and were treated with various concentrations of sRANKL (0-100 ng/ml). After 72 hours' incubation, the cells were lysed and subjected to Western blotting analysis using specific antibodies in neddylation pathway. FIG. 5B: RAW264.7 mouse macrophages were seeded on wells and transfected with UBA3 or scrambled siRNA. After culture, the transfected cells were harvested, lysed, and further analyzed by Western Blot for checking NEDD8, UBA3, and APPBP1 expressions. FIGS. 5C and 5D: the UBA3 or scrambled siRNA transfected RAW264.7 cells were further treated with sRANKL (50 ng/ml), after 3-day induction, the morphological change of macrophages to TRAP-stained positive giant osteoclasts were photographed and further counted. Data are expressed as mean±SD where *p<0.05.
The RAW264.7 cells were starved with serum-free medium for six hours and then treated with the specified treatments. At indicated time points, the cells were washed with cold phosphate-buffered saline (PBS) and lysed in RIPA buffer containing complete protease inhibitor cocktail (Roche). […]

[2] = test system: RAW264.7 cells; test: UBA3 knockdown on osteoclast differentiation, count of TRAP-positive giant osteoclasts; type: cell-based, mouse; conditions: siRNA-transfected RAW264.7, sRANKL 50 ng/ml, 3 days, FIG. 5C-5D
Method: as §1, with “*p<0.05. […]” for “*p<0.05.”
Six hours' post-transfection, the cells were treated with sRANKL (50 ng/ml). Three days later, the effect of UBA3 knockdown on mature giant osteoclast formation on wells was photographed and counted. […]

Substance: UBA3 siRNA 3: siRNA targeting UBA3, sense SEQ ID NO: 5, anti-sense SEQ ID NO: 6 (sense CCAAGCUCCAUUGUACCUUTT; antisense TTGGUUCGAGGUAACAUGGAA; chemistry not given here; one strand is listed 3' to 5')
- knockdown of UBA3 expression [1]: can knockdown the expression of UBA3
- differentiating number of giant osteoclasts [2]: significantly diminished the differentiating number of giant osteoclasts

Substance: UBA3 siRNA 2: siRNA targeting UBA3, sense SEQ ID NO: 3, anti-sense SEQ ID NO: 4 (sense GGAUCAAUGGAAUGCUGAUTT; antisense TTCCUAGUUACCUUACGACUA; chemistry not given here; one strand is listed 3' to 5')
- knockdown of UBA3 expression [1]: can knockdown the expression of UBA3
- differentiating number of giant osteoclasts [2]: significantly diminished the differentiating number of giant osteoclasts
